HELM strings list units from the 5' end as sugar, base in round brackets, then linkage (d deoxyribose, r ribose, m 2'-O-methyl, p phosphodiester). Strings are as the collection lists them, not checked against the first reports. ss, as = sense and antisense strand; [fl2r] = 2'-fluoro
Conditions: siRNA
Further: test system not given here.

Substance	target mRNA knockdown
RNA1{r(C)p.m(U)p.m(A)p.r(C)p.r(C)p.r(U)p.r(U)p.r(C)p.r(U)p.r(C)p.r(C)p.r(U)p.r(C)p.r(U)p.r(U)p.r(C)p.r(U)p.r(C)p.r(C)p.r(T)p.r(T)}|RNA2{r(G)p.r(G)p.r(A)p.r(G)p.r(A)p.r(A)p.r(G)p.r(A)p.r(G)p.r(G)p.r(A)p.r(G)p.r(A)p.r(A)p.r(G)p.r(G)p.m(U)p.m(A)p.r(G)p.r(T)p.r(T)}$$$RNA1{StrandType:ss}|RNA2{StrandType:as}$	68%
RNA1{r(C)p.m(U)p.r(A)p.r(C)p.r(C)p.r(U)p.r(U)p.r(C)p.r(U)p.r(C)p.r(C)p.r(U)p.r(C)p.r(U)p.r(U)p.r(C)p.r(U)p.r(C)p.r(C)p.r(T)p.r(T)}|RNA2{r(G)p.r(G)p.r(A)p.r(G)p.r(A)p.r(A)p.r(G)p.r(A)p.r(G)p.r(G)p.r(A)p.r(G)p.r(A)p.r(A)p.r(G)p.r(G)p.m(U)p.r(A)p.r(G)p.r(T)p.r(T)}$$$RNA1{StrandType:ss}|RNA2{StrandType:as}$	69%
RNA1{r(C)p.m(U)p.r(A)p.r(G)p.r(U)p.r(C)p.r(G)p.r(A)p.m(A)p.r(A)p.r(G)p.r(A)p.m(A)p.m(A)p.r(A)p.r(C)p.r(G)p.r(G)p.r(G)p.r(T)p.r(T)}|RNA2{r(C)p.r(C)p.r(C)p.r(G)p.r(U)p.r(U)p.r(U)p.r(U)p.r(C)p.r(U)p.r(U)p.r(U)p.r(C)p.r(G)p.r(A)p.r(C)p.m(U)p.r(A)p.r(G)p.r(T)p.r(T)}$$$RNA1{StrandType:ss}|RNA2{StrandType:as}$	55%
RNA1{r(C)p.m(U)p.r(A)p.r(G)p.r(U)p.r(C)p.r(G)p.r(A)p.r(A)p.r(A)p.r(G)p.r(A)p.r(A)p.r(A)p.r(A)p.r(C)p.r(G)p.r(G)p.r(G)p.r(T)p.r(T)}|RNA2{r(C)p.r(C)p.r(C)p.r(G)p.r(U)p.r(U)p.r(U)p.r(U)p.r(C)p.r(U)p.r(U)p.r(U)p.r(C)p.r(G)p.r(A)p.r(C)p.m(U)p.r(A)p.r(G)p.r(T)p.r(T)}$$$RNA1{StrandType:ss}|RNA2{StrandType:as}$	56%
RNA1{r(C)p.m(U)p.r(G)p.r(A)p.r(C)p.r(C)p.r(G)p.r(G)p.r(A)p.r(A)p.r(G)p.r(C)p.r(G)p.r(C)p.r(U)p.m(U)p.r(A)p.r(A)p.r(A)p.r(T)p.r(T)}|RNA2{r(U)p.r(U)p.m(U)p.r(A)p.r(A)p.r(G)p.r(C)p.r(G)p.r(C)p.r(U)p.r(U)p.r(C)p.r(C)p.r(G)p.r(G)p.r(U)p.m(C)p.r(A)p.r(G)p.r(T)p.r(T)}$$$RNA1{StrandType:ss}|RNA2{StrandType:as}$	85%
RNA1{r(C)p.r(C)p.r(A)p.[fl2r](G)p.r(C)p.[fl2r](G)p.r(A)p.[fl2r](G)p.r(C)p.r(C)p.r(C)p.r(A)p.r(A)p.r(A)p.r(A)p.[fl2r](G)p.r(A)p.r(A)p.r(A)p.r(T)p.r(T)}|RNA2{[fl2r](U)p.r(U)p.[fl2r](U)p.r(C)p.[fl2r](U)p.r(U)p.[fl2r](U)p.r(U)p.[fl2r](G)p.r(G)p.[fl2r](G)p.r(C)p.[fl2r](U)p.r(C)p.[fl2r](G)p.r(C)p.[fl2r](U)p.r(G)p.[fl2r](G)p.r(T)p.r(T)}$$$RNA1{StrandType:ss}|RNA2{StrandType:as}$	35%
RNA1{r(C)p.r(C)p.r(C)p.r(C)p.m(A)p.m(G)p.m(G)p.m(U)p.m(A)p.m(A)p.m(C)p.r(G)p.r(A)p.r(U)p.r(U)p.r(U)p.r(U)p.r(C)p.r(U)p.r(T)p.r(T)}|RNA2{r(A)p.r(G)p.r(A)p.r(A)p.r(A)p.r(A)p.r(U)p.r(C)p.r(G)p.r(U)p.r(U)p.r(A)p.r(C)p.r(C)p.r(U)p.r(G)p.r(G)p.r(G)p.r(G)p.r(T)p.r(T)}$$$RNA1{StrandType:ss}|RNA2{StrandType:as}$	79%
RNA1{r(C)p.r(C)p.r(C)p.r(C)p.r(A)p.r(G)p.r(G)p.m(U)p.r(A)p.r(A)p.r(C)p.r(G)p.r(A)p.r(U)p.r(U)p.r(U)p.r(U)p.r(C)p.r(U)p.r(T)p.r(T)}|RNA2{r(A)p.r(G)p.r(A)p.r(A)p.r(A)p.r(A)p.r(U)p.r(C)p.r(G)p.r(U)p.m(U)p.r(A)p.r(C)p.r(C)p.r(U)p.r(G)p.r(G)p.r(G)p.r(G)p.r(T)p.r(T)}$$$RNA1{StrandType:ss}|RNA2{StrandType:as}$	70%
RNA1{r(C)p.r(C)p.r(C)p.r(U)p.r(C)p.r(C)p.r(C)p.r(C)p.[fl2r](U)p.r(G)p.r(U)p.r(C)p.r(C)p.r(C)p.r(C)p.r(G)p.[fl2r](C)p.r(U)p.r(U)p.r(T)p.r(T)}|RNA2{r(A)p.r(A)p.r(G)p.r(C)p.r(G)p.r(G)p.r(G)p.r(G)p.r(A)p.[fl2r](C)p.r(A)p.r(G)p.r(G)p.r(G)p.r(G)p.r(A)p.r(G)p.r(G)p.r(G)p.r(T)p.r(T)}$$$RNA1{StrandType:ss}|RNA2{StrandType:as}$	72%
RNA1{r(C)p.r(C)p.r(C)p.r(U)p.r(C)p.r(C)p.r(C)p.r(C)p.[fl2r](U)p.r(G)p.r(U)p.r(C)p.r(C)p.r(C)p.r(C)p.r(G)p.r(C)p.r(U)p.r(U)p.r(T)p.r(T)}|RNA2{r(A)p.r(A)p.r(G)p.r(C)p.r(G)p.r(G)p.r(G)p.r(G)p.r(A)p.r(C)p.r(A)p.r(G)p.r(G)p.r(G)p.r(G)p.r(A)p.r(G)p.r(G)p.r(G)p.r(T)p.r(T)}$$$RNA1{StrandType:ss}|RNA2{StrandType:as}$	73%
RNA1{r(C)p.r(C)p.r(G)p.r(A)p.r(A)p.r(G)p.r(A)p.r(C)p.r(G)p.m(A)p.m(A)p.r(G)p.r(C)p.m(U)p.r(A)p.m(U)p.r(G)p.r(A)p.r(A)p.r(T)p.r(T)}|RNA2{r(U)p.r(U)p.m(C)p.r(A)p.m(U)p.r(A)p.r(G)p.r(C)p.r(U)p.r(U)p.r(C)p.r(G)p.r(U)p.r(C)p.r(U)p.r(U)p.r(C)p.r(G)p.r(G)p.r(T)p.r(T)}$$$RNA1{StrandType:ss}|RNA2{StrandType:as}$	69%
RNA1{r(C)p.r(C)p.r(G)p.r(A)p.r(A)p.r(G)p.r(A)p.r(C)p.r(G)p.r(A)p.r(A)p.r(G)p.r(C)p.[fl2r](U)p.r(A)p.[fl2r](U)p.r(G)p.r(A)p.r(A)p.r(T)p.r(T)}|RNA2{r(U)p.r(U)p.[fl2r](C)p.r(A)p.[fl2r](U)p.r(A)p.r(G)p.r(C)p.r(U)p.r(U)p.r(C)p.r(G)p.r(U)p.r(C)p.r(U)p.r(U)p.r(C)p.r(G)p.r(G)p.r(T)p.r(T)}$$$RNA1{StrandType:ss}|RNA2{StrandType:as}$	46%
RNA1{r(C)p.r(C)p.r(G)p.r(A)p.r(A)p.r(G)p.r(A)p.r(C)p.r(G)p.r(A)p.r(A)p.r(G)p.r(C)p.m(U)p.r(A)p.r(U)p.r(G)p.r(A)p.r(A)p.r(T)p.r(T)}|RNA2{r(U)p.r(U)p.m(C)p.r(A)p.r(U)p.r(A)p.r(G)p.r(C)p.r(U)p.r(U)p.r(C)p.r(G)p.r(U)p.r(C)p.r(U)p.r(U)p.r(C)p.r(G)p.r(G)p.r(T)p.r(T)}$$$RNA1{StrandType:ss}|RNA2{StrandType:as}$	71%
RNA1{r(C)p.r(C)p.r(G)p.r(A)p.r(A)p.r(G)p.r(A)p.r(C)p.r(G)p.r(A)p.r(A)p.r(G)p.r(C)p.r(U)p.r(A)p.r(U)p.r(G)p.r(A)p.r(A)p.r(T)p.r(T)}|RNA2{r(U)p.r(U)p.r(C)p.r(A)p.[fl2r](U)p.r(A)p.r(G)p.r(C)p.r(U)p.r(U)p.r(C)p.r(G)p.r(U)p.r(C)p.r(U)p.r(U)p.r(C)p.r(G)p.r(G)p.r(T)p.r(T)}$$$RNA1{StrandType:ss}|RNA2{StrandType:as}$	47%
RNA1{r(C)p.r(C)p.r(G)p.r(A)p.r(G)p.r(A)p.r(G)p.m(C)p.r(U)p.r(C)p.m(U)p.r(C)p.r(C)p.m(U)p.r(A)p.r(C)p.r(C)p.r(U)p.r(U)p.r(T)p.r(T)}|RNA2{r(A)p.r(A)p.r(G)p.r(G)p.m(U)p.r(A)p.r(G)p.r(G)p.r(A)p.r(G)p.r(A)p.r(G)p.r(C)p.r(U)p.r(C)p.r(U)p.r(C)p.r(G)p.r(G)p.r(T)p.r(T)}$$$RNA1{StrandType:ss}|RNA2{StrandType:as}$	72%
RNA1{r(C)p.r(C)p.r(G)p.r(A)p.r(G)p.r(A)p.r(G)p.r(C)p.r(U)p.r(C)p.r(U)p.r(C)p.r(C)p.m(U)p.r(A)p.r(C)p.r(C)p.r(U)p.r(U)p.r(T)p.r(T)}|RNA2{r(A)p.r(A)p.r(G)p.r(G)p.m(U)p.r(A)p.r(G)p.r(G)p.r(A)p.r(G)p.r(A)p.r(G)p.r(C)p.r(U)p.r(C)p.r(U)p.r(C)p.r(G)p.r(G)p.r(T)p.r(T)}$$$RNA1{StrandType:ss}|RNA2{StrandType:as}$	75%
RNA1{r(C)p.r(C)p.r(G)p.r(C)p.r(C)p.r(C)p.r(G)p.r(G)p.r(C)p.r(G)p.r(G)p.r(C)p.m(G)p.r(C)p.r(C)p.r(U)p.r(U)p.m(U)p.m(A)p.r(T)p.r(T)}|RNA2{m(U)p.m(A)p.r(A)p.r(A)p.r(G)p.r(G)p.r(C)p.r(G)p.r(C)p.r(C)p.r(G)p.r(C)p.r(C)p.r(G)p.r(G)p.r(G)p.r(C)p.r(G)p.r(G)p.r(T)p.r(T)}$$$RNA1{StrandType:ss}|RNA2{StrandType:as}$	85%
RNA1{r(C)p.r(C)p.r(G)p.r(C)p.r(C)p.r(C)p.r(G)p.r(G)p.r(C)p.r(G)p.r(G)p.r(C)p.r(G)p.r(C)p.r(C)p.r(U)p.r(U)p.r(U)p.m(A)p.r(T)p.r(T)}|RNA2{m(U)p.m(A)p.r(A)p.r(A)p.r(G)p.r(G)p.r(C)p.r(G)p.r(C)p.r(C)p.r(G)p.r(C)p.r(C)p.r(G)p.r(G)p.r(G)p.r(C)p.r(G)p.r(G)p.r(T)p.r(T)}$$$RNA1{StrandType:ss}|RNA2{StrandType:as}$	82%
RNA1{r(C)p.r(C)p.r(U)p.r(C)p.r(C)p.r(C)p.m(C)p.r(A)p.r(U)p.r(C)p.r(C)p.r(C)p.r(C)p.r(U)p.r(U)p.r(U)p.m(U)p.r(A)p.r(A)p.r(T)p.r(T)}|RNA2{r(U)p.r(U)p.m(A)p.r(A)p.r(A)p.r(A)p.r(G)p.r(G)p.r(G)p.r(G)p.r(A)p.m(U)p.r(G)p.r(G)p.r(G)p.r(G)p.r(A)p.r(G)p.r(G)p.r(T)p.r(T)}$$$RNA1{StrandType:ss}|RNA2{StrandType:as}$	80%
RNA1{r(C)p.r(C)p.r(U)p.r(C)p.r(C)p.r(C)p.r(C)p.r(A)p.r(U)p.r(C)p.r(C)p.r(C)p.r(C)p.r(U)p.r(U)p.r(U)p.r(U)p.r(A)p.r(A)p.r(T)p.r(T)}|RNA2{r(U)p.r(U)p.m(A)p.r(A)p.r(A)p.r(A)p.r(G)p.r(G)p.r(G)p.r(G)p.r(A)p.r(U)p.r(G)p.r(G)p.r(G)p.r(G)p.r(A)p.r(G)p.r(G)p.r(T)p.r(T)}$$$RNA1{StrandType:ss}|RNA2{StrandType:as}$	80%

Source: the OligoGym collection
